According to patent US9095138B2, “Isoxazoline insecticides” (E.I. du Pont de Nemours and Company, priority 2007, dated 2015):

Assays:
Format in all cases: in vivo
[1] = system: western flower thrips (Frankliniella occidentalis); assay: Test E: control of western flower thrips on Soleil bean plant, contact and/or systemic; settings: adult thrips, assessed after 6 days, replicated three times
Procedure, shortened: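 A 5-7 day old Soleil bean plant was sprayed with compound at 250 or 50 ppm in 10% acetone/water with 300 ppm X-77 surfactant, dried 1 hour, then infested with 22-27 adult thrips. After 6 days at 25° C., 45-55% relative humidity, mortality and plant damage were rated; three replicates.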

[2] = system: diamondback moth (Plutella xylostella); assay: Test A: control of diamondback moth on radish plant, foliar spray; settings: sprayed at 50 ppm; neonate larvae on radish; assessed after 6 days; replicated three times
Procedure, shortened: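 Radish plants 12–14 days old, pre-infested with about 50 neonate larvae, were sprayed with compound at 50 ppm in 10% acetone/water with 300 ppm X-77 surfactant, in three replicates. Units were held 6 days at 25 °C and 70% RH. Feeding damage was assessed visually and mortality was counted.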

[3] = system: fall armyworm (Spodoptera frugiperda); assay: Test B: control of fall armyworm on corn (maize) plant, foliar spray; settings: sprayed at 50 ppm; 1-day-old larvae on corn; replicated three times
Description: Test compounds were formulated using a solution containing 10% acetone, 90% water and 300 ppm X-77™ Spreader Lo-Foam Formula non-ionic surfactant containing alkylarylpolyoxyethylene, free fatty acids, glycols and isopropanol (Loveland Industries, Inc. Greeley, Colo., USA). The formulated compounds were applied in 1 mL of liquid through a SUJ2 atomizer nozzle with ⅛ JJ custom body (Spraying Systems Co. Wheaton, Ill., USA) positioned 1.27 cm (0.5 inches) above the top of each test unit. All experimental compounds in these tests were sprayed at 50 ppm, and the test was replicated three times. After spraying of the formulated test compound, each test unit was allowed to dry for 1 h and then a black, screened cap was placed on top. The test units were held for 6 days in a growth chamber at 25° C. and 70% relative humidity. Plant feeding damage was then visually assessed based on foliage consumed and a pest mortality rating was also counted and calculated for each test unit.
For evaluating control of fall armyworm (Spodoptera frugiperda) the test unit consisted of a small open container with a 4-5-day-old corn (maize) plant inside. This was pre-infested (using a core sampler) with 10-15 1-day-old larvae on a piece of insect diet. Test compounds were formulated and sprayed at 50 ppm as described for Test A and replicated three times. After spraying, the test units were maintained in a growth chamber and then the control efficacy was rated for each test unit as described for Test A.

Compound	control efficacy (feeding damage or mortality): very good to excellent levels ([1]; sprayed at 50 ppm)	control efficacy (feeding damage or mortality): very good to excellent levels ([1]; sprayed at 250 ppm)	control efficacy (feeding damage or mortality): very good to excellent levels [2]	control efficacy (feeding damage or mortality): very good to excellent levels [3]
C[C@@H](NC(=O)c1ccc(C2=NOC(c3cc(Cl)cc(C(F)(F)F)c3)(C(F)(F)F)C2)c2ccccc12)C(=O)NC1CC1 (stereo partly drawn) [Compound 72]	20% or less feeding damage or 80% or more mortality	20% or less feeding damage or 80% or more mortality	20% or less feeding damage or 80% or more mortality	20% or less feeding damage or 80% or more mortality
O=C(CNC(=O)c1ccc(C2=NOC(c3cc(Cl)cc(OCC(F)(F)F)c3)(C(F)(F)F)C2)c2ccccc12)NCC1CC1 (stereo not drawn) [Compound 84]	20% or less feeding damage or 80% or more mortality		20% or less feeding damage or 80% or more mortality	20% or less feeding damage or 80% or more mortality
O=C(CNC(=O)c1ccc(C2=NOC(c3cc(Cl)cc(Cl)c3)(C(F)(F)F)C2)c2ccccc12)NC1CC1 (stereo not drawn) [Compound 50]	20% or less feeding damage or 80% or more mortality	20% or less feeding damage or 80% or more mortality	20% or less feeding damage or 80% or more mortality	20% or less feeding damage or 80% or more mortality
O=C(CNC(=O)c1ccc(C2=NOC(c3cc(Cl)cc(OC(F)(F)F)c3)(C(F)(F)F)C2)c2ccccc12)NC1CC1 (stereo not drawn) [Compound 82]	20% or less feeding damage or 80% or more mortality		20% or less feeding damage or 80% or more mortality	20% or less feeding damage or 80% or more mortality
CNC(=O)[C@H]1CCCN1C(=O)c1ccc(C2=NOC(c3cc(Cl)cc(Cl)c3)(C(F)(F)F)C2)c2ccccc12 (stereo partly drawn) [Compound 104]	20% or less feeding damage or 80% or more mortality	20% or less feeding damage or 80% or more mortality	20% or less feeding damage or 80% or more mortality	20% or less feeding damage or 80% or more mortality
C[C@@H](NC(=O)c1ccc(C2=NOC(c3cc(Cl)cc(Cl)c3)(C(F)(F)F)C2)c2ccccc12)C(=O)NC1CC1 (stereo partly drawn) [Compound 53]	20% or less feeding damage or 80% or more mortality	20% or less feeding damage or 80% or more mortality	20% or less feeding damage or 80% or more mortality	20% or less feeding damage or 80% or more mortality
CS(=N)(=O)CCNC(=O)c1ccc(C2=NOC(c3cc(Cl)cc(Cl)c3)(C(F)(F)F)C2)c2ccccc12 (stereo not drawn) [Compound 94]	20% or less feeding damage or 80% or more mortality	20% or less feeding damage or 80% or more mortality	20% or less feeding damage or 80% or more mortality	20% or less feeding damage or 80% or more mortality
O=C(CNC(=O)c1ccc(C2=NOC(c3cc(C(F)(F)F)cc(C(F)(F)F)c3)(C(F)(F)F)C2)c2ccccc12)NCC1CC1 (stereo not drawn) [Compound 71]	20% or less feeding damage or 80% or more mortality		20% or less feeding damage or 80% or more mortality	20% or less feeding damage or 80% or more mortality
C[C@@H](NC(=O)c1ccc(C2=NOC(c3cc(Cl)cc(C(F)(F)F)c3)(C(F)(F)F)C2)c2ccccc12)C(=O)NCC1CC1 (stereo partly drawn) [Compound 73]	20% or less feeding damage or 80% or more mortality	20% or less feeding damage or 80% or more mortality	20% or less feeding damage or 80% or more mortality	20% or less feeding damage or 80% or more mortality
C[C@@H](NC(=O)c1ccc(C2=NOC(c3cc(C(F)(F)F)cc(C(F)(F)F)c3)(C(F)(F)F)C2)c2ccccc12)C(N)=O (stereo partly drawn) [Compound 65]	20% or less feeding damage or 80% or more mortality		20% or less feeding damage or 80% or more mortality	20% or less feeding damage or 80% or more mortality
NC(=O)CNC(=O)c1ccc(C2=NOC(c3cc(C(F)(F)F)cc(C(F)(F)F)c3)(C(F)(F)F)C2)c2ccccc12 (stereo not drawn) [Compound 70]	20% or less feeding damage or 80% or more mortality		20% or less feeding damage or 80% or more mortality	20% or less feeding damage or 80% or more mortality
CC(NC(=O)c1ccc(C2=NOC(c3cc(C(F)(F)F)cc(C(F)(F)F)c3)(C(F)(F)F)C2)c2ccccc12)C(=O)O (mixture of isomers) [Compound 31]		20% or less feeding damage or 80% or more mortality	20% or less feeding damage or 80% or more mortality	20% or less feeding damage or 80% or more mortality
CC(NC(=O)c1ccc(C2=NOC(c3cc(Cl)cc(C(F)(F)F)c3)(C(F)(F)F)C2)c2ccccc12)C(=O)NC1CC1 (stereo not drawn) [Compound 78]	20% or less feeding damage or 80% or more mortality	20% or less feeding damage or 80% or more mortality	20% or less feeding damage or 80% or more mortality	20% or less feeding damage or 80% or more mortality
C[C@@H](NC(=O)c1ccc(C2=NOC(c3cc(C(F)(F)F)cc(C(F)(F)F)c3)(C(F)(F)F)C2)c2ccccc12)C(=O)NC1CC1 (stereo partly drawn) [Compound 64]	20% or less feeding damage or 80% or more mortality	20% or less feeding damage or 80% or more mortality	20% or less feeding damage or 80% or more mortality	20% or less feeding damage or 80% or more mortality
O=C(NCCSCC(F)(F)F)c1ccc(C2=NOC(c3cccc(C(F)(F)F)c3)(C(F)(F)F)C2)c2ccccc12 (racemic) [Compound 22]	20% or less feeding damage or 80% or more mortality	20% or less feeding damage or 80% or more mortality	20% or less feeding damage or 80% or more mortality	20% or less feeding damage or 80% or more mortality
CC(NC(=O)c1ccc(C2=NOC(c3cc(C(F)(F)F)cc(C(F)(F)F)c3)(C(F)(F)F)C2)c2ccccc12)C(N)=O (stereo not drawn) [Compound 69]	20% or less feeding damage or 80% or more mortality		20% or less feeding damage or 80% or more mortality	20% or less feeding damage or 80% or more mortality
